Literature values in patent publication US20050112339A1, “Antimicrobial protection for plastic structures” (priority 2003, published 2005).

Conditions: in water

Molecule: [Na+].[O-][n+]1ccccc1[S-] [sodium pyrithione]
- water solubility: 450 grams per liter

Molecule: On1ccccc1=S.On1ccccc1=S.[Cu] [copper pyrithione]
- water solubility: 0.1 milligrams per liter

Molecule: zinc pyrithione
- water solubility: 6 milligrams per liter
